# Measurements published in patent publication US20100286145A1, “ISOPHTHALAMIDE DERIVATIVES INHIBITING BETA-SECRETASE ACTIVITY” (CoMentis, Inc., priority 2007, published 2010).
# Like-named read-outs stand apart in the source and are kept apart here.
# Legend:
# [1] = system: Aβ production in Chinese hamster ovary cells that over-express human APP695 with the London and Swedish mutations; test: Cellular Aβ IC50 determination (Aβ40 sandwich ELISA); assay type: cell-based; conditions: Cricetulus griseus
# Summary of the method: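 CHO cells overexpressing human APP695 with London and Swedish mutations, seeded at 10% confluency, treated with compounds up to about 4 μM final (0.4% DMSO). Secreted Aβ40 measured by sandwich ELISA relative to control and fitted to a 4-parameter IC50 model.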
# memapsin 2 = memapsin 2 (Homo sapiens, UniProt P56817); test: Inhibition of memapsin 2 beta-secretase activity (fluorogenic substrate FS-2); assay type: biochemical; conditions: memapsin 2, pH 4, 37° C., read-out: M2Ki
# Summary of the method: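 Memapsin 2 pre-incubated 20 min with compound at pH 4, 37° C, then FS-2 substrate (MCA-SEVNLDAEFK-DNP, APP Swedish cleavage site) added. Rate of fluorescence increase compared with uninhibited controls, fitted to a tight-binding inhibition model.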
# [2] = cellular Aβ production, read-out: IC50
# Sequence of memapsin 2 (P56817 46-501): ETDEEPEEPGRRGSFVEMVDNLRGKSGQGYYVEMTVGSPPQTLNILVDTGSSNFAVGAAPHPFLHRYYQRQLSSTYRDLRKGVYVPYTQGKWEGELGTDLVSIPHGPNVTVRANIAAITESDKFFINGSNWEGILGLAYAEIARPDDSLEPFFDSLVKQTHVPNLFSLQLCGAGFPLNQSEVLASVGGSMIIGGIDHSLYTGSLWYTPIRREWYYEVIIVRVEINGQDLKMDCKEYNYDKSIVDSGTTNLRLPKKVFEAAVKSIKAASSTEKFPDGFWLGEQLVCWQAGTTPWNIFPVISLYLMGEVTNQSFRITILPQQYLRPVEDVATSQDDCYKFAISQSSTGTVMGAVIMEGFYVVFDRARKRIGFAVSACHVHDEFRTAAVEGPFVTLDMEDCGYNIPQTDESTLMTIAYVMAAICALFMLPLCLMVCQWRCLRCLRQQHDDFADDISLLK
"IC50 [1, 2] [µM]",Ki (memapsin 2; 20 minutes pre-incubation) [µM],Ki (memapsin 2; fluorogenic substrate FS-2) [µM],Compound,IC50 [1] [µM]
< 1,< 0.3,,"Cc1csc(CN(C)C(=O)c2cc(C(=O)N[C@@H](Cc3ccccc3)[C@H](O)CNCc3cncc(C(C)C)c3)cc(-c3ccccc3C#N)c2)n1 [Compound 154, 2′-cyano-N3-((2S,3R)-3-hydroxy-4-((5-isopropylpyridin-3-yl)methylamino)-1-phenylbutan-2-yl)-N5-methyl-N5-((4-methylthiazol-2-yl)methyl)biphenyl-3,5-dicarboxamide]",
< 1,< 0.3,,"C=C(C)c1cncc(CNC[C@@H](O)[C@H](Cc2ccccc2)NC(=O)c2cccc(C(=O)N(C)Cc3nc(C)cs3)c2)c1 [Compound 22, N1-((2S,3R)-3-hydroxy-1-phenyl-4-((5-(prop-1-en-2-yl)pyridin-3-yl)methylamino)butan-2-yl)-N3-methyl-N3-((4-methylthiazol-2-yl)methyl)isophthalamide]",
1 to 5,< 0.3,,"COC(=O)c1cc(CNC[C@@H](O)[C@H](Cc2ccccc2)NC(=O)c2cccc(C(=O)N(C)Cc3nc(C)cs3)c2)cc(N(C)S(C)(=O)=O)c1 [Compound 134, methyl 3-(((2R,3S)-2-hydroxy-3-(3-(methyl((4-methylthiazol-2-yl)methyl)carbamoyl)benzamido)-4-phenylbutylamino)methyl)-5-(N-methylmethylsulfonamido)benzoate]",
< 1,< 0.3,,"Cc1csc(CN(C)C(=O)c2cccc(C(=O)N[C@@H](Cc3ccccc3)[C@H](O)CNCc3cc(O)cc(C(C)C)c3)c2)n1 [Compound 125, N1-((2S,3R)-3-hydroxy-4-(3-hydroxy-5-isopropylbenzylamino)-1-phenylbutan-2-yl)-N3-methyl-N3-((4-methylthiazol-2-yl)methyl)isophthalamide]",
< 1,< 0.3,,"Cc1csc(CN(C)C(=O)c2cc(CF)cc(C(=O)N[C@@H](Cc3ccccc3)[C@H](O)CNCc3cncc(C(C)C)c3)c2)n1 [Compound 176, 5-(fluoromethyl)-N1-((2S,3R)-3-hydroxy-4-((5-isopropylpyridin-3-yl)methylamino)-1-phenylbutan-2-yl)-N3-methyl-N3-((4-methylthiazol-2-yl)methyl)isophthalamide]",
< 1,< 0.3,,"Cc1csc(CN(C)C(=O)c2cccc(C(=O)N[C@@H](Cc3ccccc3)[C@H](O)CNCc3cccc(C(F)F)c3)c2)n1 [Compound 143, N1-((2S,3R)-4-(3-(difluoromethyl)benzylamino)-3-hydroxy-1-phenylbutan-2-yl)-N3-methyl-N3-((4-methylthiazol-2-yl)methyl)isophthalamide]",
> 5,> 0.501,,"COc1cccc(CNC[C@@H](O)[C@H](Cc2ccccc2)NC(=O)c2cccc(C(=O)N(C)Cc3ncc(C)s3)c2)c1 [Compound 6, N1-((2S,3R)-3-hydroxy-4-(3-methoxybenzylamino)-1-phenylbutan-2-yl)-N3-methyl-N3-((5-methylthiazol-2-yl)methyl)isophthalamide]",
< 1,< 0.3,,"Cc1csc(CN(C)C(=O)c2cccc(C(=O)N[C@@H](Cc3ccccc3)[C@H](O)CNCc3cccc(Cl)c3)c2)n1 [Compound 104, N1-((2S,3R)-4-(3-chlorobenzylamino)-3-hydroxy-1-phenylbutan-2-yl)-N3-methyl-N3-((4-methylthiazol-2-yl)methyl)isophthalamide]",
< 1,,< 0.3,"Cc1csc(CN(C)C(=O)c2cc(C(=O)N[C@@H](Cc3ccccc3)[C@H](O)CNCc3cccc(C(C)(F)F)c3)cc(N(C)C)c2)n1 [Compound 227, N1-((2S,3R)-4-(3-(1,1-difluoroethyl)benzylamino)-3-hydroxy-1-phenylbutan-2-yl)-5-(dimethylamino)-N3-methyl-N3-((4-methylthiazol-2-yl)methyl)isophthalamide]",
< 1,,< 0.3,"Cc1csc(CN(C)C(=O)c2cc(C(=O)N[C@@H](Cc3ccccc3)[C@H](O)CNCc3cncc(C(C)C)c3)cc(-c3cccc(Cl)c3)c2)n1 [Compound 272, 3′-chloro-N3-((2S,3R)-3-hydroxy-4-((5-isopropylpyridin-3-yl)methylamino)-1-phenylbutan-2-yl)-N5-methyl-N5-((4-methylthiazol-2-yl)methyl)biphenyl-3,5-dicarboxamide]",
< 1,< 0.3,,"Cc1csc(CN(C)C(=O)c2cccc(C(=O)N[C@@H](Cc3ccccc3)[C@H](O)CN[C@H](C)c3cncc(C(C)C)c3)c2)n1 [Compound 206, N1-((2S,3R)-3-hydroxy-4-((R)-1-(5-isopropylpyridin-3-yl)ethylamino)-1-phenylbutan-2-yl)-N3-methyl-N3-((4-methylthiazol-2-yl)methyl)isophthalamide]",
< 1,< 0.3,,"CC(=O)Nc1cc(CNC[C@@H](O)[C@H](Cc2ccccc2)NC(=O)c2cccc(C(=O)N(C)Cc3nc(C)cs3)c2)cc(C(C)C)c1 [Compound 193, N1-((2S,3R)-4-(3-acetamido-5-isopropylbenzylamino)-3-hydroxy-1-phenylbutan-2-yl)-N3-methyl-N3-((4-methylthiazol-2-yl)methyl)isophthalamide]",
> 5,> 0.501,,"Cc1csc(CN(C)C(=O)c2cccc(C(=O)N[C@@H](Cc3ccccc3)[C@H](O)CNCc3cc(CNS(C)(=O)=O)cc(C(C)C)c3)c2)n1 [Compound 175, N1-((2S,3R)-3-hydroxy-4-(3-isopropyl-5-(methylsulfonamidomethyl)benzylamino)-1-phenylbutan-2-yl)-N3-methyl-N3-((4-methylthiazol-2-yl)methyl)isophthalamide]",
< 1,< 0.3,,"Cc1csc(CN(C)C(=O)c2cccc(C(=O)N[C@@H](Cc3ccccc3)[C@H](O)CNCc3cccc(C(C)(C)C)c3)c2)n1 [Compound 52, N1-((2S,3R)-4-(3-tert-butylbenzylamino)-3-hydroxy-1-phenylbutan-2-yl)-N3-methyl-N3-((4-methylthiazol-2-yl)methyl)isophthalamide]",
< 1,< 0.3,,"CCN(CC)c1cc(C(=O)N[C@@H](Cc2ccccc2)[C@H](O)CNCc2cccc(OC)c2)cc(C(=O)N(C)Cc2nc(C)cs2)c1 [Compound 169, 5-(diethylamino)-N1-((2S,3R)-3-hydroxy-4-(3-methoxybenzylamino)-1-phenylbutan-2-yl)-N3-methyl-N3-((4-methylthiazol-2-yl)methyl)isophthalamide]",
< 1,,< 0.3,"Cc1csc(CN(C)C(=O)c2cc(C(=O)N[C@@H](Cc3ccccc3)[C@H](O)CNCc3cncc(C(C)(F)F)c3)cc(C(F)F)c2)n1 [Compound 245, N1-((2S,3R)-4-((5-(1,1-difluoroethyl)pyridin-3-yl)methylamino)-3-hydroxy-1-phenylbutan-2-yl)-5-(difluoromethyl)-N3-methyl-N3-((4-methylthiazol-2-yl)methyl)isophthalamide]",

Compound,"IC50 [1, 2] [µM]",Ki (memapsin 2; 20 minutes pre-incubation) [µM],Ki (memapsin 2; fluorogenic substrate FS-2) [µM],IC50 [1] [µM]
"Cc1csc(CN(C)C(=O)c2cccc(C(=O)N[C@@H](Cc3ccccc3)[C@H](O)CNCc3cc(OC(=O)N(C)C)cc(C(C)C)c3)c2)n1 [Compound 198, 3-(((2R,3S)-2-hydroxy-3-(3-(methyl((4-methylthiazol-2-yl)methyl)carbamoyl)benzamido)-4-phenylbutylamino)methyl)-5-isopropylphenyl dimethylcarbamate]",,< 0.3,,< 1
